Source: patent US20080063613A1, “Syndet Bars Having Ultraviolet Radiation Protection” (priority 2004, published 2008)

Test: physchem
Source text: Log P is a measure of differential solubility of a compound in two solvents. The log ratio of the concentrations of the solute in the solvent is called Log P or the Partition Coefficient. The most well-known of these partition coefficients is based on the solvents Octanol and Water.

logP: ~6.9
Compound: CCCCC(CC)COC(=O)C(C#N)=C(c1ccccc1)c1ccccc1 (stereo not shown) [Octocrylene]
